For one assay, the target named is T1, S1PR2 (Homo sapiens, UniProt O95136).
T1 construct: expressed in transfected cells
The assay can be described thus: GTP-γS binding assay ([35S]GTPγS, S1P at EC80, S1PR2 membranes). Conditions: membranes from stable cell line over expressing S1PR2, read-out: S1PR2 EC. The class given is biochemical. How it is done:
The following assay can be used for determination of S1PR2 activation. The [^35S] GTPγS assay measures the level of G protein activation following agonist occupation of a GPCR, by determining the binding of the non-hydrolysable analog [^35S] GTPγS to Gα subunits.
The assay is performed in a 96 well plate where the following reagents are added. First 50 μL compound is added into the assay plate, followed by addition of 20 μL S1P at EC80 concentration (concentration which gives 80% of the activity of S1PR2). Then, 30 μL of a mixture consisting of membranes-GTPγS-SpA beads is added [mixture consists of 2.5 μg/well membranes derived from stable cell line over expressing S1PR2 (membranes are pre-incubated with 1 μM GDP for 15 min at 4° C.), 0.1 nM [35S]GTPγS (Perkin Elmer, NEG030) and 0.5 mg/well PVT-WGA SpA beads (Perkin Elmer, RPNQ0001)]. All components are diluted in assay buffer containing 20 mM Tris pH 7.5; 10 mM MgCl2; 100 mM NaCl; 0.1% BSA FAF; 50 ug/ml saponin. After an incubation for 4 h at room temperature, plates are centrifuged at 2000 rpm during 20 min. Plates are read on a Topcount reader (Perkin Elmer) immediately after centrifugation (readout time, 1 min/well).

Assay [1] addresses T2, human GPCR sphingosine 1-phosphate receptor 2 (S1PR2) (Homo sapiens, UniProt O95136).
T2 construct: host or cells: CHO
Kind of assay: S1P2 antagonist assay (Ca2+ flux, S1P at EC80). The assay is classed as cell-based. Conditions: CHO-S1PR2 cells, highest concentration 20 μM. Here is the method: Triggering of S1PR2 by administration of Sphingosine-1-phosphate leads to a transient increase in intracellular Ca^2+. The Ca^2+ flux assays are measuring the release of Ca^2+ intracellularly by use of a Ca^2+ sensitive fluorescent dye. The assay is firstly run in agonist mode (incubation of compounds alone) to ensure that the Ca^2+ released measured is not caused by the test compound having an agonistic effect. Then the assay is continued in antagonist mode (Sphingosine-1-Phosphate added to incubated medium containing the test compounds).
CHO cells stably overexpressing human GPCR sphingosine 1-phosphate receptor 2 (CHO—S1PR2 Perkin Elmer; ES-594-A) are seeded from a frozen stock in 384 wells sterile microplates (50 μL; 7,500 cells/well) and are incubated overnight at 37° C. and 5% CO2. The next day cells are washed twice with starvation medium (F-12 Ham's medium containing 0.1% BSA (Fatty acid free: FAF)) and left in […] starvation medium for 1 h at 37° C., 5% CO2. After this starvation cells are incubated with […] buffer containing the Ca^2+-sensitive fluorescent dye (0.5 mg Fluo8+125 mg Allura Red in 100 ml of 1% DMSO, in HBSS+20 mM Hepes+5 mM probenecid). The cells are incubated for an additional 1 hour after which 10 μL compounds, diluted in HBSS buffer with 20 mM Hepes and 0.1% BSA (FAF), are added to the cells and intracellular Ca^2+ changes are immediately measured by reading fluorescence during 3 min (FDSS/μCELL reader). The ratio of the maximal fluorescence over the background fluorescence before compound injection is used to determine compound response.
(§1) After readout of the agonist activity, the plates are incubated for 15 min at 37° C. and 5% CO2. Then, cells are stimulated with 10 μL Sphingosine-1-Phosphate (S1P) (Avanti Polar lipids-860492P) at its EC80 concentration. Intracellular Ca^2+ changes are immediately measured by reading fluorescence during 3 min (FDSS/μCELL reader). The ratio of the maximal fluorescence over the background fluorescence before compound injection is used to determine compound response.
(§2) For EC50 determination, a 10 point dilution series of compounds starting from 23.3 μM and 20 μM highest final concentration for agonist and antagonist respectively, ⅓ dilution was performed.
(§3) The obtained ratio's for agonist and antagonist readout were normalized versus vehicle and EC100 of S1P as controls for agonist mode and versus vehicle and EC80 of S1P for antagonist mode. From these normalized data EC50 of the compounds are derived.
On the technique in general: Calcium flux is commonly read through the fluorescence of an indicator in the cells.

Assay [2] addresses T3, human GPCR sphingosine 1-phosphate receptor 1 (S1PR1) (Homo sapiens, UniProt P21453).
T3 construct: host or cells: CHO
The assay can be described thus: S1PR1 selectivity assay (Ca2+ flux, antagonist). The assay is classed as cell-based. Conditions: S1P1 antagonist EC50, CHO cells overexpressing human S1PR1 and Gq protein. How it is done:
as §1, §2, §3
(§4) To evaluate the selectivity of the compounds for S1PR2 over S1PR1 and S1PR5, a similar assay set up as described above for the S1PR2 calcium flux assays was performed: CHO cells stably overexpressing human GPCR sphingosine 1-phosphate receptor 1 and Gq protein (Euroscreen, FAST-0197A) or overexpressing human GPCR sphingosine 1-phosphate receptor 5 and Gq protein were used (Perkin Elmer, ES-593-A). In case of the S1PR5 assay triggering was done with an S1PR5 specific agonist instead of with S1P (Hobson et al., 2015).

Assay [3] deals with T4, human GPCR sphingosine 1-phosphate receptor 5 (S1PR5) (Homo sapiens, UniProt Q9H228).
T4 construct: host or cells: CHO
T4 sequence (Q9H228 whole entry): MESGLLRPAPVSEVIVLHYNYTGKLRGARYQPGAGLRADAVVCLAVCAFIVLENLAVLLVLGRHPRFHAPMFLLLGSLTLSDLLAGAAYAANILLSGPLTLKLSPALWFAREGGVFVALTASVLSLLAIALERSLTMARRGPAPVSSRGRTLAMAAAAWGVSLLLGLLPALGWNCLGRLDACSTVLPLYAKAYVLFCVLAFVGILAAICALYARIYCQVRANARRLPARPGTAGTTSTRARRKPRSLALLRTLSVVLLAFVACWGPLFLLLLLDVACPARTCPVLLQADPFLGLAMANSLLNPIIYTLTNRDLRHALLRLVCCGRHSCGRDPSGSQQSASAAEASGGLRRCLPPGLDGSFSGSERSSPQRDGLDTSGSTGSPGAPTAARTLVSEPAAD
Kind of assay: S1PR5 selectivity assay (Ca2+ flux, antagonist, S1PR5 specific agonist trigger). The class given is cell-based. To be noted: S1P5 antagonist EC50, CHO cells overexpressing human S1PR5 and Gq protein. How it is done:
as §1, §2, §3, §4

Structures are written as SMILES.

T2 sequence (O95136 whole entry): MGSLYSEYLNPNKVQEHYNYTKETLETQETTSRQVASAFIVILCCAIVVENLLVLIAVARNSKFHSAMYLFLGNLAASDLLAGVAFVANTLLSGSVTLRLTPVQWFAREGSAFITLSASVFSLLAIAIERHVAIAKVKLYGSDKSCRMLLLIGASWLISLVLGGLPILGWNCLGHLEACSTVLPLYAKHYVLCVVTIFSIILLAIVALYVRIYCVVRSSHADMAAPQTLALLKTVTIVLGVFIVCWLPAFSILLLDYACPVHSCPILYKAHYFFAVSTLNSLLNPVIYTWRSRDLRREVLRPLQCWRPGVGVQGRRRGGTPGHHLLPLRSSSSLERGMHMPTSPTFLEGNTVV
T1 sequence (O95136 whole entry): as above
T3 sequence (P21453 whole entry): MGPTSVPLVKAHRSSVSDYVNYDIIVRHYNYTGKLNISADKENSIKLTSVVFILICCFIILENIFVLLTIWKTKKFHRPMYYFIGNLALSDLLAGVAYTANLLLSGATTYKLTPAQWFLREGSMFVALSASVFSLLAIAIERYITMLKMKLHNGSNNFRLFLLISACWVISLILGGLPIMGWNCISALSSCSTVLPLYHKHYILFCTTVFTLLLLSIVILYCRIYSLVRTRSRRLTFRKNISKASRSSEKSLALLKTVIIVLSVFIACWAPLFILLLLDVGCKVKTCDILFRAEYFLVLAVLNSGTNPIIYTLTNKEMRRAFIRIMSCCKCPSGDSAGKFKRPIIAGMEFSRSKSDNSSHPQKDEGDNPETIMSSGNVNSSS

With `Cc1cc(CNC(=O)Nc2ccnc(Cl)c2)nnc1-c1cn(C)nc1C(F)(F)F` [Compound 44, 1-(2-chloro-4-pyridyl)-3-[[5-methyl-6-[1-methyl-3-(trifluoromethyl)pyrazol-4-yl]pyridazin-3-yl]methyl]urea], the EC50 was 4.15 µM on S1PR2, 4.5 µM in assay [1], ≥ 19.8 µM in assay [2] and ≥ 19.8 µM in assay [3].
Regarding `Cc1cn(-c2nnc(CNC(=O)Nc3cc(Cl)nc(OCC(F)F)c3)cc2C)c(C)n1` [Compound 70], the EC50 at S1PR2 was 0.904 µM; in assay [1], 0.904 µM; in assay [2], ≥ 19.8 µM; in assay [3], ≥ 19.8 µM.
In the case of `Cc1cc(CNC(=O)Nc2cc(C#N)nc(OCC(F)F)c2)nnc1-c1cn(C)nc1C(F)(F)F` [Compound 28, 1-[2-cyano-6-(2,2-difluoroethoxy)-4-pyridyl]-3-[[5-methyl-6-[1-methyl-3-(trifluoromethyl)pyrazol-4-yl]pyridazin-3-yl]methyl]urea], the EC50 came to 0.0897 µM at S1PR2, 0.016 µM in assay [1], 6.61 µM in assay [2] and 6.61 µM in assay [3].
Consider `COCCOc1cc(NC(=O)NCc2cc(C)c(-c3cn(C)nc3C(F)(F)F)nn2)cc(C(F)(F)F)n1` [Compound 25, 1-[2-(2-methoxyethoxy)-6-(trifluoromethyl)-4-pyridyl]-3-[[5-methyl-6-[1-methyl-3-(trifluoromethyl)pyrazol-4-yl]pyridazin-3-yl]methyl]urea], for which the EC50 at S1PR2 is 2.03 µM; in assay [1], 0.792 µM; in assay [2], ≥ 19.8 µM; in assay [3], ≥ 19.8 µM.
For `CCOc1nc(Cl)cc(NC(=O)NCc2cc(C)c(-c3cn(C)nc3C(F)(F)F)nn2)c1C` [Compound 20, 1-(6-chloro-2-ethoxy-3-methyl-4-pyridyl)-3-[[5-methyl-6-[1-methyl-3-(trifluoromethyl)pyrazol-4-yl]pyridazin-3-yl]methyl]urea], the EC50 at S1PR2 turned out to be 0.0152 µM; in assay [1], 0.0088 µM; in assay [2], 3.87 µM; in assay [3] it was 2.1 µM.
For the compound `Cc1cc(CNC(=O)Nc2cnc(OCC(F)F)c(C(F)(F)F)c2)nnc1-c1cn(C)nc1C(F)(F)F` [Compound 7, 1-[6-(2,2-difluoroethoxy)-5-(trifluoromethyl)-3-pyridyl]-3-[[5-methyl-6-[1-methyl-3-(trifluoromethyl)pyrazol-4-yl]pyridazin-3-yl]methyl]urea], the EC50 was 0.33 µM at S1PR2, 0.0178 µM in assay [1], ≥ 19.8 µM in assay [2] and ≥ 19.8 µM in assay [3].
On to `CCOc1cc(NC(=O)NCc2cc(C)c(-c3cn(C)nc3C(F)(F)F)nn2)cc(C2CC2)n1` [Compound 22, 1-(2-cyclopropyl-6-ethoxy-4-pyridyl)-3-[[5-methyl-6-[1-methyl-3-(trifluoromethyl)pyrazol-4-yl]pyridazin-3-yl]methyl]urea], for which the EC50 was 0.086 µM on S1PR2, 0.0173 µM in assay [1], 6.61 µM in assay [2] and ≥ 19.8 µM in assay [3].
On to `Cc1cc(CNC(=O)Nc2ccnc(C(F)(F)F)c2)nnc1-c1cn(C)nc1C(F)(F)F` [Compound 43, 1-[[5-methyl-6-[1-methyl-3-(trifluoromethyl)pyrazol-4-yl]pyridazin-3-yl]methyl]-3-[2-(trifluoromethyl)-4-pyridyl]urea], for which the EC50 at S1PR2 is 4.65 µM; in assay [1] it was 6.03 µM; in assay [2], ≥ 19.8 µM; in assay [3] it was ≥ 19.8 µM.
For the compound `Cc1cc(CNC(=O)Nc2cnc(OCC(F)F)c(Cl)c2)nnc1-c1cn(C)nc1C(F)(F)F` [Compound 9, 1-[5-chloro-6-(2,2-difluoroethoxy)-3-pyridyl]-3-[[5-methyl-6-[1-methyl-3-(trifluoromethyl)pyrazol-4-yl]pyridazin-3-yl]methyl]urea], the EC50 is 0.532 µM on S1PR2, 0.0237 µM in assay [1], ≥ 19.8 µM in assay [2] and ≥ 19.8 µM in assay [3].
